Laboratory results taken from ChEMBL document CHEMBL1145498, “A systematic interaction map of validated kinase inhibitors with Ser/Thr kinases” (Proc Natl Acad Sci U S A, 2007).
The source made the active and inactive calls. The calls are words filed in the database; no cut-off is given here.

Key:
[1] = target: Cyclin-dependent kinase 7/ cyclin H (Homo sapiens, UniProt P50613); experiment: Inhibition of Cdk7/H/MAT1; type: protein-complex assay
[2] = Inhibition of VEGFR
Rattus norvegicus = species on record: Rattus norvegicus; experiment: Antiangiogenic activity in rat aortic ring model at 10000 nM; type: functional; settings: Aorta
[3] = target: Inhibitor of nuclear factor kappa-B kinase subunit alpha (Homo sapiens, UniProt O15111); experiment: Inhibition of IKK1
Mus musculus = experiment: Effect on phorbol ester-induced ear edema in ip dosed mouse; type: functional
MV4-11 [4] = experiment: Induction of apoptosis in human MV4-11 cells; type: functional, cell-based
[5] = target: RAC-alpha serine/threonine-protein kinase (Homo sapiens, UniProt P31749); experiment: Inhibition of AKT
[6] = target: Macrophage colony-stimulating factor 1 receptor (Homo sapiens, UniProt P07333)
[7] = target: Tyrosine-protein kinase ABL1 (Homo sapiens, UniProt P00519); experiment: Inhibition of Abl
[8] = Inhibition of FLT3 ITD mutant
[9] = Plasma clearance in mouse at 5 mg/kg, iv; type: ADME, organism-based; set-up: dose 5 mg/kg, route intravenous
[10] = target: DNA topoisomerase 2-alpha (Homo sapiens, UniProt P11388); experiment: Inhibition of topoisomerase 2
[11] = target: Tyrosine-protein kinase Lck (Homo sapiens, UniProt P06239); experiment: Inhibition of p56lck autophosphorylation
MV4-11 [12] = experiment: Antiproliferative activity against human MV4-11 cells; type: functional
cells [13] = settings: Homo sapiens, Granta-519, 72 h
[14] = Growth inhibition of human renal epithelial cells after 72 hrs […]; type: cell-based; settings: Epithelial cell
cells [15] = settings: Homo sapiens, NCEB1, 72 h
[16] = target: Platelet-derived growth factor receptor alpha (Homo sapiens, UniProt P16234); experiment: Inhibition of PDGFRalpha
[17] = target: Tyrosine-protein kinase Lyn (Homo sapiens, UniProt P07948); experiment: Inhibition of Lyn kinase
[18] = target: Tyrosine-protein kinase Fyn (Homo sapiens, UniProt P06241); experiment: Inhibition of Fyn
[19] = Inhibition of PDGF receptor kinase
[20] = Inhibition of adhesion kinase in human T cells; type: cell-based; settings: t-cell
Jurkat = experiment: Inhibition of serum-induced proliferation in human Jurkat cells; type: functional, cell-based
[21] = target: Membrane-associated tyrosine- and threonine-specific cdc2-inhibitory kinase (Homo sapiens, UniProt Q99640); experiment: Inhibition of Myt1
[22] = Inhibition of GTPase activity of transducer
[23] = Inhibition of TNFalpha release in human peripheral blood mononuclear cells; type: functional
NT2 [24] = experiment: Cell cycle arrest in human NT2 cells assessed as accumulation at G1 phase; type: functional, cell-based
NT2 [25] = experiment: Cell cycle arrest in human NT2 cells assessed as accumulation at G2 phase; type: functional, cell-based
[26] = target: Casein kinase II subunit alpha (Homo sapiens, UniProt P68400); experiment: Inhibition of CK2
Platelet = experiment: Inhibition of collagen-induced human platelet aggregation; type: functional, cell-based
[27] = Inhibition of Cdk6/cyclin D1
[28] = target: Casein kinase I isoform alpha (Homo sapiens, UniProt P48729); experiment: Inhibition of CK1a1
[29] = target: Protein kinase C gamma type (Homo sapiens, UniProt P05129); experiment: Inhibition of PKCgamma
[30] = target: Mitogen-activated protein kinase 1 (Homo sapiens, UniProt P28482); experiment: Binding affinity to ERK2
[31] = target: RAF proto-oncogene serine/threonine-protein kinase (Homo sapiens, UniProt P04049); experiment: Inhibition of Raf1
[32] = target: Tyrosine-protein kinase ITK/TSK (Homo sapiens, UniProt Q08881); experiment: Inhibition of Itk
[33] = Inhibition of Cdk2/cyclin B
Transcription factor Jun = Transcription factor Jun (Homo sapiens, UniProt P05412); experiment: Inhibition of AP1 activity
[34] = target: Myosin light chain kinase, smooth muscle (Homo sapiens, UniProt Q15746); experiment: Binding affinity at MLCK
[35] = target: Hepatocyte growth factor receptor (Homo sapiens, UniProt P08581); experiment: Inhibition of Met kinase
[36] = target: Epidermal growth factor receptor (Homo sapiens, UniProt P00533); experiment: Inhibition of EGF
[37] = target: Platelet-derived growth factor receptor beta (Homo sapiens, UniProt P09619)
[38] = target: Vascular endothelial growth factor receptor 3 (Homo sapiens, UniProt P35916); experiment: Inhibition of VEGFR3
Aurora kinase A = Aurora kinase A (Homo sapiens, UniProt O14965); experiment: Inhibition of Aurora kinase A
[39] = target: Epidermal growth factor receptor (Homo sapiens, UniProt P00533, L861Q); experiment: Inhibition of EGFR L861Q mutant; type: protein assay
PBMC = experiment: Inhibition of LPS-stimulated IL1 release in human PBMC; type: functional, cell-based

Chain of Platelet-derived growth factor receptor beta (P09619 whole entry): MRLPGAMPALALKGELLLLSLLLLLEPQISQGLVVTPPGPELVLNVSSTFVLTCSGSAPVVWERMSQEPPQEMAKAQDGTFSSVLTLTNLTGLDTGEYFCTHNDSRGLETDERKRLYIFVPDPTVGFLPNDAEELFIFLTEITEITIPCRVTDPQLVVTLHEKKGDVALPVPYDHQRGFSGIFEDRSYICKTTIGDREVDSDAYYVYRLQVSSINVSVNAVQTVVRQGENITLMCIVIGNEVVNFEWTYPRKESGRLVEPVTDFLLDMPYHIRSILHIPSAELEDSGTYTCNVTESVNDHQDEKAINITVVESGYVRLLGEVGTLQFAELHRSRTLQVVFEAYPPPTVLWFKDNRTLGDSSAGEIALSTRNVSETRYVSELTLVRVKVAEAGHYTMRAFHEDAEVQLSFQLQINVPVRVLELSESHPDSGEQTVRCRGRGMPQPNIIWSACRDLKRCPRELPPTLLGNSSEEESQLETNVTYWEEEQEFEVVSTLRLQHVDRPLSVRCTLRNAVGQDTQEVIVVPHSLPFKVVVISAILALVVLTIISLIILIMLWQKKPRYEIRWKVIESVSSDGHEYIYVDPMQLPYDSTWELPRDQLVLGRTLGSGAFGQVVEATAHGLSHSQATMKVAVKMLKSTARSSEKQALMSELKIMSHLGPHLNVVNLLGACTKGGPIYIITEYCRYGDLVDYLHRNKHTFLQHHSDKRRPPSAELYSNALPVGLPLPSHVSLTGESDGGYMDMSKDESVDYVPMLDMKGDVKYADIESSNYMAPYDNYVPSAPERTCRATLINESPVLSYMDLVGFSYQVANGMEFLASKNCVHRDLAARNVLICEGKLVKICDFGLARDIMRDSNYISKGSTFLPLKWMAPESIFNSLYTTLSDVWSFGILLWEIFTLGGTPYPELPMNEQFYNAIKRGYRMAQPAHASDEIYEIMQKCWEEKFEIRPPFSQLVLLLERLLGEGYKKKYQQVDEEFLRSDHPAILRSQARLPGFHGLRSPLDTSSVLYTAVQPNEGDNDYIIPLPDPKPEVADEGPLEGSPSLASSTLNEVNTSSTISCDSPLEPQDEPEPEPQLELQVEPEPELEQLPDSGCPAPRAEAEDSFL
Chain of Hepatocyte growth factor receptor (P08581 whole entry): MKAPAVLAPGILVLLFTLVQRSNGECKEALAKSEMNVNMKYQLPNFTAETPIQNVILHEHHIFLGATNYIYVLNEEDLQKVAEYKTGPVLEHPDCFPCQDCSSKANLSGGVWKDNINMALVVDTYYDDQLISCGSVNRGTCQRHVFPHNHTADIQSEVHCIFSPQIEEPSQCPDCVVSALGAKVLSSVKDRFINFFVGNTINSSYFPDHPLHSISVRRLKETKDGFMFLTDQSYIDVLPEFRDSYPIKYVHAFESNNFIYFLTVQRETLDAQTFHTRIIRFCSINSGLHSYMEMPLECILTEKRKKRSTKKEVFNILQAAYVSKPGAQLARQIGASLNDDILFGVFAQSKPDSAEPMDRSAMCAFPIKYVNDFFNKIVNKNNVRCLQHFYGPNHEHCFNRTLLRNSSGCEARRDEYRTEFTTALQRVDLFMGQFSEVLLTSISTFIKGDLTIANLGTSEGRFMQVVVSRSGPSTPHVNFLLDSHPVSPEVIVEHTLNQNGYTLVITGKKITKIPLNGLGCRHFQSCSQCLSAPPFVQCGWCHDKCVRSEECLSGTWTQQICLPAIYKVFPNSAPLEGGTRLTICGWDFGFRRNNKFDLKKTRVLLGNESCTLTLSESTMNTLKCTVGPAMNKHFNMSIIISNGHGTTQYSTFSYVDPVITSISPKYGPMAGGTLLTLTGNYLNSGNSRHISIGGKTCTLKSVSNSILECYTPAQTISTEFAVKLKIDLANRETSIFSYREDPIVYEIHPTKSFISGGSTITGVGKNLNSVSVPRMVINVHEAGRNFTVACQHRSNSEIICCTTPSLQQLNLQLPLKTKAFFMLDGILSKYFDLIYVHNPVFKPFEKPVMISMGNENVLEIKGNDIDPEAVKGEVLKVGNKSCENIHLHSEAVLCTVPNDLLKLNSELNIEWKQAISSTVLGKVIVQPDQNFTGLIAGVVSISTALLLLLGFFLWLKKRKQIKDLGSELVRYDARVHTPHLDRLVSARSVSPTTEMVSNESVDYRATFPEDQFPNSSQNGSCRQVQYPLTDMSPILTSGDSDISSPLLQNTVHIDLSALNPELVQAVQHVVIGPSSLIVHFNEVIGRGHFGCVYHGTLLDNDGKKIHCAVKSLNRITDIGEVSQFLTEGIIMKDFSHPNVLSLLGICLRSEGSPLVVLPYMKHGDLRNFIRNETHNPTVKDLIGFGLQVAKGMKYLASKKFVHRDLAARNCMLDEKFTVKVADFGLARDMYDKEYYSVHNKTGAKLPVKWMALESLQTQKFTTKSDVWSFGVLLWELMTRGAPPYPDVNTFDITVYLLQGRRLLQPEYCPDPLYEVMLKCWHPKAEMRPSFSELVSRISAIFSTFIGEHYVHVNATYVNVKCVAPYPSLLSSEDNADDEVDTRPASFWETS
Chain of RAC-alpha serine/threonine-protein kinase (P31749 whole entry): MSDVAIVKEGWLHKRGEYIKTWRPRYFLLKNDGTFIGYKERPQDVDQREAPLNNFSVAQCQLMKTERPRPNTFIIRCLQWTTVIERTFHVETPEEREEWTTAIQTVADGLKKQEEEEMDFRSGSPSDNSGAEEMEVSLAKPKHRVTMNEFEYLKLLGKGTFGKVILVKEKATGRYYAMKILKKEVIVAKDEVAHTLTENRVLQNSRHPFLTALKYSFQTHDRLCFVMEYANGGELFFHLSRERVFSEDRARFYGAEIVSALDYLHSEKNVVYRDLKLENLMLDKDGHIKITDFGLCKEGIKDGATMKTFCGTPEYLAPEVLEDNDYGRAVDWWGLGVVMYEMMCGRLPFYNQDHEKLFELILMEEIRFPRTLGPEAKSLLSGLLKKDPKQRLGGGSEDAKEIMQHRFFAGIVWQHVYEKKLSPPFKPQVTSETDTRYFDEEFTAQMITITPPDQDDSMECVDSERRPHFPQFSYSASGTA
Chain of Inhibitor of nuclear factor kappa-B kinase subunit alpha (O15111 whole entry): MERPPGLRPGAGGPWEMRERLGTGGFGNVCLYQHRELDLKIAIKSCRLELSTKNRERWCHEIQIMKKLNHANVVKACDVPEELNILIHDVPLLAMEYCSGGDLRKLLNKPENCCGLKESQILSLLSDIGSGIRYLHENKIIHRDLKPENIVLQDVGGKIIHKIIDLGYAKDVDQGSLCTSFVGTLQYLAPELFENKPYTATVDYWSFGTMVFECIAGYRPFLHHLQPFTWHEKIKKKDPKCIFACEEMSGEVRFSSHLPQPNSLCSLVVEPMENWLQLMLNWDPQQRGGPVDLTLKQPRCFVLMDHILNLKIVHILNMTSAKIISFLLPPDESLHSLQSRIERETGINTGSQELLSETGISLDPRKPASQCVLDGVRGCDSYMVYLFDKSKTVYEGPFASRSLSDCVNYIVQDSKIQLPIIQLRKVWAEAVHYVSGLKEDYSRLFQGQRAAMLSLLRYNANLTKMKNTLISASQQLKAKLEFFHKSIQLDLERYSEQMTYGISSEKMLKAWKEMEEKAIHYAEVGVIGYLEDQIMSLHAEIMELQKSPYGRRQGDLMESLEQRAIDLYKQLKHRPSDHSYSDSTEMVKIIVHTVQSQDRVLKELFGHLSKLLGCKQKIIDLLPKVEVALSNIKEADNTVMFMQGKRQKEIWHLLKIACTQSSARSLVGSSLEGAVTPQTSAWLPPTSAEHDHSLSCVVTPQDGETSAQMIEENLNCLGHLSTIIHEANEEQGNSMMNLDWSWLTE
Chain of Vascular endothelial growth factor receptor 3 (P35916 whole entry): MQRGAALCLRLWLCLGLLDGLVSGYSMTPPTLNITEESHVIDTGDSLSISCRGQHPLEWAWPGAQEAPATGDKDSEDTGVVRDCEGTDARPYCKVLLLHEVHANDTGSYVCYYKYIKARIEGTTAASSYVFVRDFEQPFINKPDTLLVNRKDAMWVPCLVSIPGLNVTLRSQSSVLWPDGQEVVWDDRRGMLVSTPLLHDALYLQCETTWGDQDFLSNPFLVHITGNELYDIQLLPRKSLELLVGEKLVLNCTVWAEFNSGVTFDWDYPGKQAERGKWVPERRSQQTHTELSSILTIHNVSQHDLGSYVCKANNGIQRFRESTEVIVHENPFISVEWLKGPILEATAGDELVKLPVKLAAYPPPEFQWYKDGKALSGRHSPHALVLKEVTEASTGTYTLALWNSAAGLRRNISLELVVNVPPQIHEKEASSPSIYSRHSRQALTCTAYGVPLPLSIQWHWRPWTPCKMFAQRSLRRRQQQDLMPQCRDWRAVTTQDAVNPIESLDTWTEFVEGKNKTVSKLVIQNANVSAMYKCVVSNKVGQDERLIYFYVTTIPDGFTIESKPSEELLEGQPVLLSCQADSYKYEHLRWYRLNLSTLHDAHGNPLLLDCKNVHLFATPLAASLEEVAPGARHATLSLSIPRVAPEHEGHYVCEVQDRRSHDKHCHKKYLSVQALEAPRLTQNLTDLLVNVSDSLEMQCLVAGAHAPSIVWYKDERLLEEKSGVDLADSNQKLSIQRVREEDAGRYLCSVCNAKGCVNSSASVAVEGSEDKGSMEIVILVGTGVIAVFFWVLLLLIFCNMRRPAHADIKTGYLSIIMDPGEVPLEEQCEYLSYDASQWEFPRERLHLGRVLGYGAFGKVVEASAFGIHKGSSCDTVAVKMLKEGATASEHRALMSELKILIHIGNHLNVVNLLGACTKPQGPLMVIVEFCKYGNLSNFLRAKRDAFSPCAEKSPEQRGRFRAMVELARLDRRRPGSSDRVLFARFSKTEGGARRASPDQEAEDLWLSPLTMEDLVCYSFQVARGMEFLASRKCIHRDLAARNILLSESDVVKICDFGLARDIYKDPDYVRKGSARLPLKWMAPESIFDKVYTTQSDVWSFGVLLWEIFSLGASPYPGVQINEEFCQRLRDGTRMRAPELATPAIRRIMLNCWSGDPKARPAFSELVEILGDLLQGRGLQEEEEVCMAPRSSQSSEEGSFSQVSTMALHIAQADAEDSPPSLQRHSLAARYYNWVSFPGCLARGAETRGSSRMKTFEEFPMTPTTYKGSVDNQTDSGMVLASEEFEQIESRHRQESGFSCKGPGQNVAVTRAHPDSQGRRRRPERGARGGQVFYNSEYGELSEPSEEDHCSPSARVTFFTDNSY

CC(C)c1nn(-c2c(Cl)cccc2Cl)c2nc(Cc3ccc(OCCO)cc3)[nH]c(=O)c12
IC50 [1]: 0.071 µM

COc1cc2c(cc1OC)-c1n[nH]c(Nc3cccc(F)c3)c1C2
IC50 [2]: 3.1 µM

O=C1Nc2ccccc2/C1=C/c1cnc[nH]1
inhibition at 10 µM (Rattus norvegicus): 30%

COc1cc(O)c2c(c1)oc(=O)c1c3cc(O)c(O)cc3oc21 [WEDELOLACTONE]
IC50 [3]: > 10 µM

C=CNC#N
ED50 (Mus musculus): 5 mg/kg

CN(C)C[C@@H]1CCn2cc(c3ccccc32)C2=C(C(=O)NC2=O)c2cn(c3ccccc23)CCO1 [RUBOXISTAURIN]
IC50 (MV4-11 [4]): 1.5 µM

c1ccc(-c2n[nH]c3c2oc2ccccc23)cc1
IC50 [5]: ≥ 10 µM | IC50 [6]: 0.3 µM | IC50 [7]: ≥ 10 µM | IC50 [8]: 0.3 µM

O=c1cc(N2CCOCC2)oc2c1ccc1ccccc12
clearance [9]: 1.8 mL/min

Cc1c2ccncc2c(C)c2c1[nH]c1ccccc12 [ELLIPTECINE]
IC50 [10]: 3.3 µM | IC50 [11]: 18.5 µM

COc1ccc(Cl)cc1NC(=O)Nc1cc(C)nc2ccccc12
Activity (MV4-11 [12]): 15 µM

CC[C@H](CO)Nc1nc(NCc2ccccc2)c2ncn(C(C)C)c2n1 [SELICICLIB]
IC50 (cells [13]): 25 µM | IC50 [14]: 25 µM | IC50 (cells [15]): 50 µM

CCCNC(=O)Nc1ccc(Oc2ncnc3cc(OC)c(OC)cc23)cc1Cl [KRN-633]
IC50 [16]: 0.97 µM

CN(C)S(=O)(=O)c1ccc2c(c1)/C(=C/c1cc3c([nH]1)CCCC3)C(=O)N2
IC50 [17]: 0.13 µM | IC50 [18]: 0.17 µM | IC50 [19]: > 10 µM

CCOC(=O)c1cnc2oc3ccc(O)cc3c2c1-c1ccccc1
Activity: Active

CC(C)(C)n1nc(-c2ccc(Cl)cc2)c2c(N)ncnc21
IC50 [20]: 0.6 µM

CN1CCc2[nH]c(=S)c(C#N)c(-c3cccs3)c2C1
IC50 (Jurkat): < 8 µM | IC50 [21]: 1.2 µM

N#CC(C#N)=Cc1ccc(O)c(O)c1 [TYRPHOSTIN 23]
IC50 [22]: 10 µM

C[S+]([O-])c1ccc(CSc2nc(-c3ccc(F)cc3)c(-c3ccncc3)[nH]2)cc1 (configuration not stated)
IC50 [23]: 3.65 µM

CCCCc1c(-c2ccc(O)cc2)[nH]c2nccnc12 [ALOISINE A]
IC50 (NT2 [24]): 7 µM | IC50 (NT2 [25]): 10.5 µM | IC50 [26]: ≥ 100 µM

C[S+]([O-])c1ccc(-c2nc(-c3ccc(F)cc3)c(-c3ccncc3)[nH]2)cc1 (configuration not stated) [SB-203580]
IC50 (Platelet): 0.2 µM

O=C1c2ccccc2-[n+]2ccc3c([nH]c4ccccc43)c21 [FASCAPLYSIN CHLORIDE]
IC50 [27]: 3.4 µM

COc1cc(OC)c(/C=C2\C(=O)Nc3ccccc32)c(OC)c1
IC50 [28]: 11 µM

O=C1NC(=O)C(c2cn(CCCn3ccnc3)c3ccccc23)=C1Nc1ccccc1
IC50 [29]: > 1 µM

CCOc1ccc(/C=C2/SC(=O)N(CCN)C2=O)cc1 [HIAZOLIDINEDIONE1]
Kd [30]: 5 µM

O=C1C(Cl)=C(N2C(=O)CCC2=O)C(=O)c2ccccc21
IC50 [31]: 34.5 µM

NCCNc1ncc(C(N)=O)c(Nc2cccc(C(F)(F)F)c2)n1
IC50 [32]: 22.6 µM

CC(=O)O/N=C1/C(=C2/C(=O)Nc3cc(Br)ccc32)Nc2ccccc21 [6-BROMOINDIRUBIN-3'-ACETOXIME]
IC50 [33]: 63 µM

N#C/C(=C(/N)Sc1ccc(N)cc1)c1ccccc1C(F)(F)F
IC50 (Transcription factor Jun): 2.03 µM

N=C(N)NCCNS(=O)(=O)c1cccc2cnccc12
Ki [34]: 150 µM

Cc1[nH]c(/C=C2\C(=O)Nc3ccc(S(=O)(=O)N(C)c4cccc(Cl)c4)cc32)c(C)c1C(=O)N1CCN(C)CC1
IC50 [35]: 0.02 µM

CCOC(=O)c1c(C)[nH]c(/C=C2\C(=O)Nc3ccccc32)c1C
IC50 [36]: > 100 µM

N#CCCc1ccc2c(c1)-c1[nH]c3ccc([N+](=O)[O-])cc3c1CC(=O)N2 [ALSTERPAULLONE 2]
IC50 [37]: 0.316 µM | IC50 [38]: 1 µM

COc1cc2ncnc(Nc3ccc(NC(=O)c4ccccc4)cc3)c2cc1OC [ANILINOQUINAZOLINE1]
IC50 (Aurora kinase A): 0.31 µM

O=C(Nc1cccc(Nc2cc(Nc3cccc(C(F)(F)F)c3)ncn2)c1)C1CC1
IC50 [39]: 0.004 µM

CSc1nc(-c2ccc(F)cc2)c(-c2ccnc(NC(C)c3ccccc3)c2)[nH]1 (racemic)
IC50 (PBMC): 0.039 µM
